Assays:
Mus musculus [1] = experiment: Concentration producing seizure after 4 hrs tested by MES (Maximal ElectroShock test) done after 30 min of administration in mouse; na=no activity; type: functional, organism-based
Mus musculus [2] = organism: Mus musculus; experiment: Concentration producing anticonvulsant drug-induced neurologic deficit after 4 hrs done by rotarod ataxia test in mouse; na=no activity; type: functional, organism-based
Mus musculus [3] = experiment: Concentration producing seizure after 0.5 hrs tested by MES (Maximal ElectroShock test) done after 30 min of administration in mouse; na=no activity; type: functional, organism-based
Mus musculus [4] = organism: Mus musculus; experiment: Concentration of compound producing anticonvulsant drug-induced neurologic deficit after 0.5 hrs done by rotarod ataxia test in mouse; na=no activity; type: functional, organism-based
Mus musculus [5] = experiment: Concentration producing seizure after 0.5 hrs tested by ScMet (Subcutaneous pentylenetetrazole test) done after 30 min of administration of 85 mg/kg pentylenetetrazol in mouse; na=no activity; type: functional, organism-based; parameters: dose 85 mg/kg
Mus musculus [6] = experiment: Concentration producing seizure after 4 hrs tested by ScMet (Subcutaneous pentylenetetrazole test) done after 30 min of administration of 85 mg/kg pentylenetetrazol in mouse; na=no activity; type: functional, organism-based; parameters: dose 85 mg/kg
Mus musculus [7] = experiment: Concentration producing seizure after 0.5 hrs tested by MES (Maximal ElectroShock test) done after 30 min of administration in mouse
Mus musculus [8] = experiment: Concentration producing seizure after 0.5 hrs tested by ScMet (Subcutaneous pentylenetetrazole test) done after 30 min of administration of 85 mg/kg pentylenetetrazol in mouse
Mus musculus [9] = organism: Mus musculus; experiment: Concentration of compound producing anticonvulsant drug-inducedneurologic deficit after 0.5 hrs done by rotarod ataxia test in mouse; settings: in vivo
Mus musculus [10] = experiment: Anticonvulsant activity of compound expressed in terms of median effective dose (ED50) produced after ScMet test in mouse by i.p. administration (range 21.4-28.2); settings: ip
Mus musculus [11] = experiment: Anticonvulsant activity of compound expressed in terms of median effective dose (ED50) produced after MES test in mouse by i.p. administration (range 19.5-28); settings: ip
Mus musculus [12] = organism: Mus musculus; experiment: Protective index (TD50/ED50) produced by compound in mouse after MES test
Mus musculus [13] = organism: Mus musculus; experiment: Protective index (TD50/ED50) produced by compound in mouse after ScMet test
Mus musculus [14] = experiment: Anticonvulsant activity of compound expressed in terms of median effective dose (ED50) produced after ScMet test in mouse by i.p. administration (range 9.3-13.1); settings: ip
Mus musculus [15] = experiment: Anticonvulsant activity of compound expressed in terms of median effective dose (ED50) produced after MES test in mouse by i.p. administration (range 17-24.5); settings: ip
Mus musculus [16] = experiment: Anticonvulsant activity of compound expressed in terms of median effective dose (ED50) produced after MES test in mouse by i.p. administration (range 247-338); settings: ip
Mus musculus [17] = experiment: Anticonvulsant activity of compound expressed in terms of median effective dose (ED50) produced after ScMet test in mouse by i.p. administration (range 123-177); settings: ip
Mus musculus [18] = experiment: Anticonvulsant activity of compound expressed in terms of median effective dose (ED50) produced after ScMet test in mouse by i.p. administration (range 12.5-20.6); settings: ip
Mus musculus [19] = experiment: Anticonvulsant activity of compound expressed in terms of median effective dose (ED50) produced after MES test in mouse by i.p. administration (range 11.5-15.8); settings: ip
Mus musculus [20] = experiment: Anticonvulsant activity of compound expressed in terms of median effective dose (ED50) produced after ScMet test in mouse by i.p. administration; settings: ip
Mus musculus [21] = experiment: Anticonvulsant activity of compound expressed in terms of median effective dose (ED50) produced after MES test in mouse by i.p. administration (range 5.5-14.1); settings: ip
Mus musculus [22] = experiment: Concentration producing seizure after 0.5 hrs tested by ScMet (Subcutaneous pentylenetetrazole test) done after 30 min of administration of 85 mg/kg pentylenetetrazol in mouse (no activity)
Rattus norvegicus = experiment: Neurotoxicity expressed as median toxic dose (TD50) produced after Rotarod ataxia test in mouse by i.p. administration (range 62.8-72.9); type: functional; settings: ip
Mus musculus [23] = experiment: Anticonvulsant activity of compound expressed in terms of median effective dose (ED50) produced after MES test in mouse by i.p. administration (range 14.8-20.4); settings: ip
Mus musculus [24] = experiment: Anticonvulsant activity of compound expressed in terms of median effective dose (ED50) produced after ScMet test in mouse by i.p. administration (range 21.6-26.7); settings: ip
Mus musculus [25] = experiment: Anticonvulsant activity of compound expressed in terms of median effective dose (ED50) produced after MES test in mouse by i.p. administration (range 12.9-10.9); settings: ip
Mus musculus [26] = organism: Mus musculus; experiment: Concentration of compound producing anticonvulsant drug-inducedneurologic deficit after 0.5 hrs done by rotarod ataxia test in mouse; settings: in vivo; remark: listed apart in the source
Mus musculus [27] = experiment: Concentration producing seizure after 4 hrs tested by MES (Maximal ElectroShock test) done after 30 min of administration in mouse
Mus musculus [28] = experiment: Anticonvulsant activity of compound expressed in terms of median effective dose (ED50) produced after ScMet test in mouse by i.p. administration (range 5.7-7.9); settings: ip

Compound | DOSE (Mus musculus [1]) | DOSE (Mus musculus [2]) | DOSE (Mus musculus [4]) | DOSE (Mus musculus [6]) | Dose (Mus musculus [7]) [mg/kg] | Dose (Mus musculus [8]) [mg/kg] | Dose (Mus musculus [9]) [mg/kg] | PI (Mus musculus [13]) | also measured
Clc1ccc(COc2ccc3c(c2)CCc2nncn2-3)cc1Cl | No activity | No activity | No activity | No activity |  |  |  |  | DOSE (Mus musculus [3]): No activity; DOSE (Mus musculus [5]): No activity
Fc1ccccc1COc1ccc2c(c1)CCc1nncn1-2 | No activity | No activity | No activity | No activity | 300 | 300 |  |  | 
Brc1cccc(COc2ccc3c(c2)CCc2nncn2-3)c1 | No activity | No activity |  | No activity | 30 | 30 | 100 | 4 | ED50 (Mus musculus [10]): 24.5 mg/kg; ED50 (Mus musculus [11]): 23.3 mg/kg; PI (Mus musculus [12]): 4.2
Fc1cccc(F)c1COc1ccc2c(c1)CCc1nncn1-2 | No activity | No activity | No activity | No activity |  |  |  |  | DOSE (Mus musculus [3]): No activity; DOSE (Mus musculus [5]): No activity
CCOc1ccc2c(c1)CCc1nncn1-2 |  | No activity | No activity |  |  |  |  |  | DOSE (Mus musculus [3]): No activity; DOSE (Mus musculus [5]): No activity
CCCCOc1ccc2c(c1)CCc1nncn1-2 | No activity | No activity |  | No activity | 100 | 100 | 100 |  | 
Cc1ccc(COc2ccc3c(c2)CCc2nncn2-3)cc1 | No activity | No activity |  | No activity | 30 | 30 | 100 | 5.9 | ED50 (Mus musculus [14]): 11.1 mg/kg; PI (Mus musculus [12]): 3.2; ED50 (Mus musculus [15]): 20.5 mg/kg
c1cc2c(cc1COc1ccc3c(c1)CCc1nncn1-3)OCO2 | No activity | No activity |  | No activity | 100 | 100 | 300 |  | 
CCCC(CCC)C(=O)O [VALPROIC ACID] |  |  |  |  |  |  |  |  | ED50 (Mus musculus [16]): 272 mg/kg; ED50 (Mus musculus [17]): 149 mg/kg
CCCCCCCCCCCCOc1ccc2c(c1)CCc1nncn1-2 | No activity | No activity | No activity | No activity |  |  |  |  | DOSE (Mus musculus [3]): No activity; DOSE (Mus musculus [5]): No activity
COc1ccc(COc2ccc3c(c2)CCc2nncn2-3)cc1 | No activity | No activity |  | No activity | 100 | 100 | 300 |  | 
CCCOc1ccc2c(c1)CCc1nncn1-2 | No activity | No activity |  | No activity | 100 | 100 | 100 |  | 
CCCCCCOc1ccc2c(c1)CCc1nncn1-2 | No activity | No activity |  | No activity | 30 | 30 | 100 | 1.7 | PI (Mus musculus [12]): 2.2; ED50 (Mus musculus [18]): 17.7 mg/kg; ED50 (Mus musculus [19]): 13.5 mg/kg
Clc1ccc(COc2ccc3c(c2)CCc2nncn2-3)cc1 | No activity | No activity | No activity | No activity | 300 | 300 |  |  | 
NC(=O)N1c2ccccc2C=Cc2ccccc21 [CARBAMAZEPINE] |  |  |  |  |  |  |  | <0.22 | ED50 (Mus musculus [20]): > 100 mg/kg; ED50 (Mus musculus [21]): 8.8 mg/kg
O=C1NC(=O)C(c2ccccc2)(c2ccccc2)N1 [PHENYTOIN] |  |  |  |  |  |  |  | <0.22 | ED50 (Mus musculus [20]): > 300 mg/kg
CCCCCCCCOc1ccc2c(c1)CCc1nncn1-2 | No activity | No activity | No activity | No activity | 100 |  |  |  | Dose (Mus musculus [22]): 100 mg/kg
CCC1(c2ccccc2)C(=O)NC(=O)NC1=O [PHENOBARBITAL] |  |  |  |  |  |  |  |  | ED50 (Rattus norvegicus): 69 mg/kg
c1ccc(COc2ccc3c(c2)CCc2nncn2-3)cc1 | No activity | No activity |  | No activity | 30 | 100 | 100 | 2.6 | ED50 (Mus musculus [23]): 17.3 mg/kg; ED50 (Mus musculus [24]): 24 mg/kg; PI (Mus musculus [12]): 3.5
Fc1ccc(COc2ccc3c(c2)CCc2nncn2-3)cc1 |  | No activity |  | No activity | 30 | 30 |  | 8.1 | ED50 (Mus musculus [25]): 11.8 mg/kg; Dose (Mus musculus [26]): 100 mg/kg; PI (Mus musculus [12]): 4.6; Dose (Mus musculus [27]): 30 mg/kg; ED50 (Mus musculus [28]): 6.7 mg/kg

— ChEMBL document CHEMBL1143470, “Synthesis and anticonvulsant activity of 7-alkoxyl-4,5-dihydro-[1,2,4]triazolo[4,3-a]quinolines” (Bioorg Med Chem Lett, 2005)
